Measured values taken from ChEMBL document CHEMBL5705890, “Antitumor activity of an allosteric inhibitor of centromere-associated protein-E” (Proc Natl Acad Sci U S A, 2010).
Blank lines part the entries; values can stand above or below the molecule they belong to. Calls of active or inactive are those of the source. No cut-off for these calls is given here.

How the values were obtained:
[1] = system: CC(C)Oc1ccc(C(=O)N[C@H](CNC(=O)CN(C)C)Cc2ccc(-c3cn4cccc([C@H](C)O)c4n3)cc2)cc1Cl; details: Canis lupus familiaris
Description: Binding affinity to wild-type dog CENP-E assessed as Km in presence of microtubule

[2] = system: CC(C)Oc1ccc(C(=O)N[C@H](CNC(=O)CN(C)C)Cc2ccc(-c3cn4cccc([C@H](C)O)c4n3)cc2)cc1Cl; details: Canis lupus familiaris; remark: listed apart in the source
Description: Binding affinity to wild-type dog CENP-E assessed as Km in presence of ATP

[3] = system: CC(C)Oc1ccc(C(=O)N[C@H](CNC(=O)CN(C)C)Cc2ccc(-c3cn4cccc([C@H](C)O)c4n3)cc2)cc1Cl; details: Canis lupus familiaris; remark: listed apart in the source
Description: Binding affinity to wild-type dog CENP-E assessed as catalytic constant

[4] = biological target: Centromere-associated protein E (Homo sapiens) (UniProt Q02224); experiment: Binding affinity to C-terminal 6-his-tagged CENP-E (2 to 340 residues)(unknown origin) expressed in Escherichia coli BL21(DE3) photo-exposed for 30 mins by LC-MS analysis
[5] = biological target: Centromere-associated protein E (Homo sapiens) (UniProt Q02224); experiment: Competitive-like binding affinity to C-terminal 6-his-tagged CENP-E (2 to 340 residues)(unknown origin) expressed in Escherichia coli BL21(DE3) in presence of ATP
[6] = system: CC(C)Oc1ccc(C(=O)N[C@H](CNC(=O)CN(C)C)Cc2ccc(-c3cn4cccc([C@H](C)O)c4n3)cc2)cc1Cl; details: Mus musculus
Description: Binding affinity to wild-type mouse CENP-E assessed as Km in presence of ATP

[7] = system: CC(C)Oc1ccc(C(=O)N[C@H](CNC(=O)CN(C)C)Cc2ccc(-c3cn4cccc([C@H](C)O)c4n3)cc2)cc1Cl; details: Mus musculus; remark: listed apart in the source
Description: Binding affinity to wild-type mouse CENP-E assessed as Km in presence of microtubule

[8] = system: CC(C)Oc1ccc(C(=O)N[C@H](CNC(=O)CN(C)C)Cc2ccc(-c3cn4cccc([C@H](C)O)c4n3)cc2)cc1Cl; details: Mus musculus; remark: listed apart in the source
Description: Binding affinity to wild-type mouse CENP-E assessed as catalytic constant

[9] = system: HCC1954; experiment: Induction of morphological change in human HCC1954 cells expressing GFP-histone 2B assessed as bipolar spindle formation of chromosomes at 0.2 ug/ml measured for 5 days on every 15 mins by PI staining based analysis; assay type: functional, cell-based; details: dose 0.2 µg/ml, time 5.0 day
[10] = biological target: Centromere-associated protein E (Homo sapiens) (UniProt Q02224); experiment: Inhibition of CENP-E motor domain ATPase in human HCC1954 cells assessed as increase in 4n DNA content at 325 nM measured for 144 hrs by flow cytometry; assay type: cell-based
[11] = biological target: Centromere-associated protein E (Homo sapiens) (UniProt Q02224); experiment: Inhibition of CENP-E motor domain ATPase in human HCC1954 cells expressing GFP-histone 2B assessed as increase in mitotic index at 0.2 ug/ml measured for 5 days on every 15 mins by PI staining based analysis; assay type: cell-based; details: dose 0.2 µg/ml, time 5.0 day
[12] = biological target: Centromere-associated protein E (Homo sapiens) (UniProt Q02224); experiment: Inhibition of CENP-E motor domain ATPase in human HCC1954 cells assessed as increase in cyclin B level by Western blot analysis; assay type: cell-based
[13] = system: SK-OV-3; experiment: Induction of morphological change in human SK-OV-3 cells assessed as increase in mitotic cells with bipolar spindle formation of chromosomes at 50 nM measured for 24 to 32 hrs by microscopic analysis; assay type: functional, cell-based; details: time 24-32 hrs
[14] = biological target: Centromere-associated protein E (Homo sapiens) (UniProt Q02224); experiment: Inhibition of CENP-E motor domain ATPase in human HCC1954 cells assessed as increase in Ser10 phosphorylated histone H3 level by Western blot analysis; assay type: cell-based
[15] = system: HCC1954; experiment: Induction of apoptosis in human HCC1954 cells assessed as increase in PARP cleavage measured for 145 hrs by Western blot analysis; assay type: functional, cell-based
[16] = biological target: Centromere-associated protein E (Homo sapiens) (UniProt Q02224); experiment: Uncompetitive-like binding affinity to C-terminal 6-his-tagged CENP-E (2 to 340 residues)(unknown origin) expressed in Escherichia coli BL21(DE3) in presence of ATP
[17] = biological target: Centromere protein E (Canis lupus familiaris) (UniProt A0A8P0P634); experiment: Binding affinity to wild-type dog CENP-E assessed as ATPase activity
[18] = system: COLO 205; experiment: Antitumor activity against human COLO 205 cells xenografted in mouse assessed as reduction in tumor volume administered intraperitoneally three doses daily on 2 consecutive weeks; assay type: functional, cell-based; details: dose 62.5-125 mg/kg, route ip, time 2.0 weeks
[19] = species: Homo sapiens
Description: Binding affinity to human CENP-E T183A/K184T mutant assessed as Km in presence of ATP

[20] = species: Homo sapiens; remark: listed apart in the source
Description: Binding affinity to human CENP-E T183A/K184T mutant assessed as catalytic constant

[21] = species: Homo sapiens; experiment: Binding affinity to human CENP-E T183A/K184T mutant assessed as ATPase activity
[22] = system: COLO 205; experiment: Induction of morphological change in human COLO 205 cells xenografted in mouse assessed as appearance of mitotic figures in tumor at 125 mg/kg measured after 24 hrs of single administration by H and E staining based analysis; assay type: functional, organism-based
[23] = biological target: Centromere-associated protein E (Homo sapiens) (UniProt Q02224)
Description: Binding affinity to C-terminal 6-his-tagged CENP-E (2 to 340 residues)(unknown origin) expressed in Escherichia coli BL21(DE3) assessed as compound dissociation by measuring t1/2

[24] = system: COLO 205; experiment: Induction of morphological change in human COLO 205 cells xenografted in mouse assessed as appearance of scattered apoptotic bodies in tumor at 125 mg/kg measured after 24 hrs of single administration by H and E staining based analysis; assay type: functional, organism-based
[25] = species: Homo sapiens; remark: listed apart in the source
Description: Binding affinity to human CENP-E T183A/K184T mutant assessed as Km in presence of microtubule

[26] = system: COLO 205; experiment: Effect on cell cycle distribution in human COLO 205 cells xenografted in mouse assessed as increase in ratio of 4n to 2n nuclei measured after 24 hrs of single administration by flow cytometry; assay type: functional, cell-based; details: dose <= 125.0 mg/kg

Chain of Centromere-associated protein E (Homo sapiens) (Q02224 whole entry, the tested form may be a part): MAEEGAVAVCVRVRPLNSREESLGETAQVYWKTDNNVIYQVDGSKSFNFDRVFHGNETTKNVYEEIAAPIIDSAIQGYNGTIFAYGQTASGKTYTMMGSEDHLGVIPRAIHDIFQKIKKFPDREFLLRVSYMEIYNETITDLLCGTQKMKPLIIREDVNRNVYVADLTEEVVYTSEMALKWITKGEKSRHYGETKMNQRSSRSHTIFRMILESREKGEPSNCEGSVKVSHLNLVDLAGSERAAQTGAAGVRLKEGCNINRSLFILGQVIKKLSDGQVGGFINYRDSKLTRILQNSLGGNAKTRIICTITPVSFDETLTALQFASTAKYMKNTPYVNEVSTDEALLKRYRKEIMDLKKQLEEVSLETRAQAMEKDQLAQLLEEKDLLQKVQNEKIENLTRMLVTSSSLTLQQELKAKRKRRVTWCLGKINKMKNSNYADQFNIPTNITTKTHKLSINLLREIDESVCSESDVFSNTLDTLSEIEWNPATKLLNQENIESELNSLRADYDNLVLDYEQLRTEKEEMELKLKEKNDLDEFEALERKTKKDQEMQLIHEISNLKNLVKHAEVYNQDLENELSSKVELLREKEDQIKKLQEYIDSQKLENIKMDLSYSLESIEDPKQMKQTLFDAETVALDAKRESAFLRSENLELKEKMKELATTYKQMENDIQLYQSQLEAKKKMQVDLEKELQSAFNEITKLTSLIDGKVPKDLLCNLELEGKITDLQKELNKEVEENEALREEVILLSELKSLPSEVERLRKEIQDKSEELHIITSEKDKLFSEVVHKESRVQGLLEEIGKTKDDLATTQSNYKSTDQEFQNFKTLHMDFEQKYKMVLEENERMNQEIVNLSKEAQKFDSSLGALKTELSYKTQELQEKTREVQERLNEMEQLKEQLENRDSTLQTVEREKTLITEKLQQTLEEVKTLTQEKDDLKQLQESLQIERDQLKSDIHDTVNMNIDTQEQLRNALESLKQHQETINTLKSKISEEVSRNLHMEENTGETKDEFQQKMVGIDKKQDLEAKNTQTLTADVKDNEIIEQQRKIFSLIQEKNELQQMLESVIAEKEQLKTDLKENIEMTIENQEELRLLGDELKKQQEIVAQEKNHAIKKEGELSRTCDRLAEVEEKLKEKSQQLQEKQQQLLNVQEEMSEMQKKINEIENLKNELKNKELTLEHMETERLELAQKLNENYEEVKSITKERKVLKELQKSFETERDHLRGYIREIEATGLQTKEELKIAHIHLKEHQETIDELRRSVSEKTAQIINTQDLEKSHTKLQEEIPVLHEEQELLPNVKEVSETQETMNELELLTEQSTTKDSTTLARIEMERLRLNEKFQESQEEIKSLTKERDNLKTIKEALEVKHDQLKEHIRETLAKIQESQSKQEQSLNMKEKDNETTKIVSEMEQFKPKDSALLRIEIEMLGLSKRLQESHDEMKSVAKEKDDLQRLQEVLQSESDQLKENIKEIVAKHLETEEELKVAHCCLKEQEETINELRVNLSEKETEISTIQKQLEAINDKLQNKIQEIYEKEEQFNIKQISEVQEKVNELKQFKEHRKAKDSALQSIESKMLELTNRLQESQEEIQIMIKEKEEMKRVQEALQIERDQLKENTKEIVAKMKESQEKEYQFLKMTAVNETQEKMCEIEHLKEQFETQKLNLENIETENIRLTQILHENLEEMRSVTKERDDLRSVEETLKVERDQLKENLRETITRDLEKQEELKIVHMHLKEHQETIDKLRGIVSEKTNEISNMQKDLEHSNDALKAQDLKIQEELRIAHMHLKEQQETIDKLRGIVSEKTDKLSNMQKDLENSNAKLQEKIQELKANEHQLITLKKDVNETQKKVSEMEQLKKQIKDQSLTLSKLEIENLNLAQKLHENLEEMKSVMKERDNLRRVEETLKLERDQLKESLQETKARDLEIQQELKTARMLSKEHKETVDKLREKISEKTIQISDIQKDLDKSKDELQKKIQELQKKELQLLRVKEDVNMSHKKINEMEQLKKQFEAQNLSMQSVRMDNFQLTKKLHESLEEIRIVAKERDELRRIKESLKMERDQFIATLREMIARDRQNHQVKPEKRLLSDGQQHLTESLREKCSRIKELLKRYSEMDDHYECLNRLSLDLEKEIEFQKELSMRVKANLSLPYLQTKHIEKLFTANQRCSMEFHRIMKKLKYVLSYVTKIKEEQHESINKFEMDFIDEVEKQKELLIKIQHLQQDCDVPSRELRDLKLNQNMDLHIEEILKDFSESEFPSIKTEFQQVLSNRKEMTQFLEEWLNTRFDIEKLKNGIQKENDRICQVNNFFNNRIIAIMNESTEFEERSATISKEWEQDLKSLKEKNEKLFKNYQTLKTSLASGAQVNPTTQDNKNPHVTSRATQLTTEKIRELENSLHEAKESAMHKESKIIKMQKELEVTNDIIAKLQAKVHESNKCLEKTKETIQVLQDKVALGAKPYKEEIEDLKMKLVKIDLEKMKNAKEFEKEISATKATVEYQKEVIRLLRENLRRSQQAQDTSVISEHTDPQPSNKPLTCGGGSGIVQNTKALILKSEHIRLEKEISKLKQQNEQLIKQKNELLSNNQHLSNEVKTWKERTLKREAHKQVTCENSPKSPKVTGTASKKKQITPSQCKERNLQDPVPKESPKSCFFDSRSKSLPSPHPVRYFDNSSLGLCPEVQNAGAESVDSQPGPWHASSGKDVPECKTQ
Chain of Centromere protein E (Canis lupus familiaris) (A0A8P0P634 as listed by the source): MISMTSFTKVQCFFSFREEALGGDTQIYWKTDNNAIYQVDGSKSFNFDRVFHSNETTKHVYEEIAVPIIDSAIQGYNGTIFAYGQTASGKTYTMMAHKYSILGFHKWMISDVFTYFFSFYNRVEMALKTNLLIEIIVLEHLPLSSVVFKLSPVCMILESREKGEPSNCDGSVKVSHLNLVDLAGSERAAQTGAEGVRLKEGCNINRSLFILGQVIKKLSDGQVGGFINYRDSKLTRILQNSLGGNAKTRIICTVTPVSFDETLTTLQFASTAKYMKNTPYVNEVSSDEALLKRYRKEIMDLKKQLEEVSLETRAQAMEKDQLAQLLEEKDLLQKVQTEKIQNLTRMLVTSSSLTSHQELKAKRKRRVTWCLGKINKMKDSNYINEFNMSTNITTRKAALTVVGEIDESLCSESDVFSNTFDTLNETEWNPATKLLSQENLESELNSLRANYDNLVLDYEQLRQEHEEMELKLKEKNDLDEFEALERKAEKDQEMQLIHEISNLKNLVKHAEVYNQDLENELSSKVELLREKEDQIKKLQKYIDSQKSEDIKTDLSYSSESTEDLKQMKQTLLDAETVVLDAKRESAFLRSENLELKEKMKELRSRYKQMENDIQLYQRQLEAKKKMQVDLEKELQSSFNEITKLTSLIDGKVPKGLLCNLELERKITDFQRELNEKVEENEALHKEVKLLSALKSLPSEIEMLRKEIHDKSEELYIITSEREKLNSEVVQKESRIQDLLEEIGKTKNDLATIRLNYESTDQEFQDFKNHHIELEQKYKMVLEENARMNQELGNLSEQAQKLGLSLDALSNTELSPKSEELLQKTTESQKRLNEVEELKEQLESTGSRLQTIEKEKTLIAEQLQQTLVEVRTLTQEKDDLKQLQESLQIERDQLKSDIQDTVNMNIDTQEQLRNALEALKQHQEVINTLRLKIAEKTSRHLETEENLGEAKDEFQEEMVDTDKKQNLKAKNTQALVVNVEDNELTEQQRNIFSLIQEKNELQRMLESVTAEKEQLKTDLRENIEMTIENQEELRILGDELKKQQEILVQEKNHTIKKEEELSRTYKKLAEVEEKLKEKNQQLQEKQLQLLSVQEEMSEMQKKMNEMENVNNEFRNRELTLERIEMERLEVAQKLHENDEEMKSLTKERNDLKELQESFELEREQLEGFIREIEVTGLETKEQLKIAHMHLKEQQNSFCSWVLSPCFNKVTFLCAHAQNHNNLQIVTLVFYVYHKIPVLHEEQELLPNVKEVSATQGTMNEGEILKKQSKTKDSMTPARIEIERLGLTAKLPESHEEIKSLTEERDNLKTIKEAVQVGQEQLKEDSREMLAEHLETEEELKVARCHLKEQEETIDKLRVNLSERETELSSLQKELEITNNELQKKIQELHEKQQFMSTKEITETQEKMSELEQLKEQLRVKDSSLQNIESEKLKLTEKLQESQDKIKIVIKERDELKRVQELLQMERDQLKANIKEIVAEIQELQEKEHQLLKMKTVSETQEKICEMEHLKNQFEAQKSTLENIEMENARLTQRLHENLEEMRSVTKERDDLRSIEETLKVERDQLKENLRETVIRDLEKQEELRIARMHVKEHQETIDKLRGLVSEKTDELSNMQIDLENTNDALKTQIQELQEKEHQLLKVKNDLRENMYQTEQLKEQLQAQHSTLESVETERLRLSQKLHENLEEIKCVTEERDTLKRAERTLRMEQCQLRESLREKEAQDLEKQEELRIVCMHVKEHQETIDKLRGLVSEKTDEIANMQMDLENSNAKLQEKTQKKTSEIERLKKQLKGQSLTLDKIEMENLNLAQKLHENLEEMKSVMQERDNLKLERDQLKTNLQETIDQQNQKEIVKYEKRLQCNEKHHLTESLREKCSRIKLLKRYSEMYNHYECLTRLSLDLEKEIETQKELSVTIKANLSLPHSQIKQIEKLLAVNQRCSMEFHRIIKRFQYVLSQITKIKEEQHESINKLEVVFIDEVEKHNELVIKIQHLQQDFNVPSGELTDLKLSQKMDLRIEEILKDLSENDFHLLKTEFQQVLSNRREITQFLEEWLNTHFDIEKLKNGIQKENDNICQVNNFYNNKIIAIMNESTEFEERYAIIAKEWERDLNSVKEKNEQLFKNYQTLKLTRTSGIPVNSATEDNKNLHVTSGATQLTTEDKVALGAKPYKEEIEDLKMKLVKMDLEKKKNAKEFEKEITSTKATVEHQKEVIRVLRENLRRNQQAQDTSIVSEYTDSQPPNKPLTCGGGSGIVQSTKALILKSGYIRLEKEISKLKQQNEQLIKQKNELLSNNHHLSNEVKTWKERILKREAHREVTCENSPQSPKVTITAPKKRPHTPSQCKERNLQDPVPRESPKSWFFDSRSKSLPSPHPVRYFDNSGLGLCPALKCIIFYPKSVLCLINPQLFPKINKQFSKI

Molecule: Centromere protein E (Canis lupus familiaris), A0A8P0P634
Km [1]: 0.38 µM
Km [2]: 34 µM
kcat [3]: 11.1 s⁻¹

Molecule: CNC(=O)C(Cc1ccc(C(=O)c2ccccc2)cc1)NC(=O)c1ccc(OC(C)C)c(Cl)c1 (stereo unspecified)
Activity [4]: Active
alphaKi [5]: 8 nM

Molecule: Centromere-associated protein E (Mus musculus), Q6RT24
Km [6]: 25 µM
Km [7]: 0.55 µM
kcat [8]: 10.1 s⁻¹

Continued, in another order:

inhibition [10]: Active
inhibition [11]: Active
inhibition [12]: Active
inhibition [14]: Active
alphaKi [16]: 0.25 nM
Molecule: Cc1cccn2cc(-c3ccc(C[C@@H](CCO)NC(=O)c4ccc(OC(C)C)c(C#N)c4)cc3)nc12
Activity [9]: Active
Activity [13]: Active
Activity [15]: Active

Activity [17]: 0.32 s⁻¹
Km [19]: 20 µM
kcat [20]: 12.1 s⁻¹
Activity [21]: 0.06 s⁻¹
T1/2 [23]: 10.2 h
Km [25]: 1.81 µM
Molecule: CC(C)Oc1ccc(C(=O)N[C@H](CNC(=O)CN(C)C)Cc2ccc(-c3cn4cccc([C@H](C)O)c4n3)cc2)cc1Cl
Activity [18]: Dose-Dependent Effect
Activity [22]: Active
Activity [24]: Active
Activity [26]: Dose-Dependent Effect
